Results from patent publication US10590081B2, “Guanidine compounds and use thereof” (ImmunoMet Therapeutics Inc., priority 2015, dated 2020).
pIC50: −log10 of the molar value. Structures can show the parent of a compound that is named as a salt. Where two headings read alike, the source gives them in different places.

Assays:
[1] = system: A549 cells; assay: Test for inhibition of OCR and enhancement of ECAR (XF Analyzer); assay type: cell-based; settings: 24 hrs treatment, oxygen consumption rate
Source text: Measurement of Mitochondrial Complex I Inhibition
The electron transfer complex in mitochondria is composed of 5 complexes. The complex I accept electrons from NADH produced from glycolysis and TCA cycle and the electrons move to complex […] and the electron is finally transferred to O2 and water molecule is generated. During the electron transfer, proton gradient is generated and the chemical gradient is a driving source to synthesize ATP at complex V. The mitochondrial inhibition of complex I indirectly assessed by measuring the oxygen consumption rate (OCR) at complex IV. […] The solution outside of cells becomes acidic (lower pH) as lactate is transported to outside of cells. OCR and Extracellular acidification rate (ECAR) are determined by XF Analyzer (Seahorse Biosciences).
A549 cells were purchased from American Type Tissue Culture Collection (CCL-185™) and cultured in RPMI 1640 supplied with 10% fetal bovine serum (FBS) and antibiotic-antimycotic (Lifetech, CA). A549 cells were separated with 0.5% Trypsin-EDTA and 3,000 cells were plated on 1 mg/ml poly-D-lysine (Sigma, P6407) coated XF 96 well […]. A549 cells were allowed to adhere to the wells for 24 hours under the condition of temperature, 37° C. and 5% CO2. The sensor cartridge of XF Analyzer was soaked in 200 μl of Calibrant solution (Seahorse, MA) in a clear 96-well plate at 37° C. for 24 hours. The compounds of the present invention were diluted with RPMI 1640 without FBS, transferred to A549 cells on XF 96 well plate, and incubated further for 23 hours at 37° C. and 5% CO2. After incubation, the compound solution was exchanged with pre-warmed and pH adjusted (pH7.4) XF assay media (Seahorse) supplied with 15 mM D-glucose (Sigma), 15 mM sodium pyruvate (Lifetechnologies, CA) and 4 mM L-glutamine (Lifetechnologies, CA). The compounds of present invention were prepared in XF Assay media and added to the assay plate. The assay plate was equilibrated in XF Analyzer for 1 hour, and the reading were started by sensor cartridge. The cytotoxicity assay was followed using Cyquant (Lifetechnologies, CA) in order to calibrate the inhibition with cytotoxicity of compounds. The concentrations of the compounds were tested at 0, 0.5, 1, 5, 10 and 20 μM and IC50 value was obtained from the inhibited values. That is, from OCR inhibition values at each concentration of the compound, IC50 was calculated according to Prism's dose response curve fitting.
In Table 1, the levels of OCR IC50 are evaluated by the following.
According to the test results of the compounds, the compounds were classified into A, B and C.

[2] = system: SK-MEL-28 cells; assay: Cytotoxicity in low glucose condition (MTT assay); assay type: cell-based; settings: 0.75 mM glucose, 72 hours treatment, read-out: SK-MEL-280.75 mM glucose cell viability (IC50 μM)
Source text: Cytotoxicity Assay in Low Glucose Condition
The inhibition of oxidative phosphorylation (OXPHOS) is not cytotoxic to cells in normal glucose condition, because it is postulated that normal cells have compensatory mechanism under energy stress conditions such as low glucose. However OXPHOS inhibitors show cytotoxic effect on cells in the glucose deprived condition (BirsoyK, 2014). The glucose deprived condition is observed in tumor microenvironment potentially due to poor angiogenesis. Therefore the OXPHOS inhibitors may show anti-cancer effect on cancer cells in low glucose condition that may depict tumor microenvironment.
The compounds of the present invention were evaluated their cytotoxicity in SK-MEL-28, melanoma with 0.75 mM glucose supplement. The cytotoxic effect is compared with the cytotoxicity caused by phenformin. The cytotoxicity in low glucose condition is correlated with inhibition of oxygen consumption in mitochondria.
SK-MEL-28 (HTB-72) is a melanoma cell line obtained from ATCC (MA) and cultured in RPMI 1640 media (Lifetechnologies, CA) with supplement of 10% FBS and antibiotic-antimycotic (Lifetechnologies, CA). RPMI 1640 (−Glucose) was used to prepare low glucose media and 0.75 mM glucose was supplied with D-(+)-glucose solution from Sigma. SK-MEL-28 cells were separated from culture plate using 0.5% trypsin-EDTA and 1,250 cells were plated in 96-well plate with low glucose media. After incubation at 37° C. for 24 hour, 5% CO2, the cells were treated with the compounds of present invention in FBS-free media for 72 hours. The cytotoxicity was measured by the MTT (AMRESCO, OH) assay. NADH-dependent cellular oxidoreductase reduces MTT to its insoluble […] with purple color. The enzyme depends on cell number or energy state of cells. 10 μl of 5 mg/ml MTT solution was added to each well of the assay plate and skip the well for blank. The plate was incubated at 37° C. and 5% CO2 for 2 hours. The MTT solution was removed from each well and 100 μl of DMSO was added. The plate was read by VICTOR X3 Multilabel Counter at the wavelength of 550 nm. In Table 2, the levels of IC50 are evaluated by the following criteria.
According to the concentration of compound for killing the half of cell populations (the levels of IC50), the compounds were classified into A, B and C, when the compounds were treated on SK-MEL-28 cells at 0.75 mM glucose.

Compound	pIC50 ([1]; Homo sapiens)	pIC50 [1]	IC50 ([2]; Homo sapiens, SK-MEL-28, 72 h)	IC50 [2]
N=C(NC(=N)N1CCC(F)(F)C1)Nc1ccc(OC(F)(F)F)c(Cl)c1 [Example 38, N—(N-(3-chloro-4-(trifluoromethoxy)phenyl)carbamimidoyl)-3,3-difluoropyrrolidine-1-carboximidamide acetate]	5.40 to 5.70	–	6 to 15 µM	–
N=C(NCc1ccc(Cl)c(Cl)c1)NC(=N)N1CCC(F)(F)CC1 [Example 42, N—(N-(3,4-dichlorobenzyl)carbamimidoyl)-4,4-difluoropiperidine-1-carboximidamide hydrochloride]	< 5.40	–	6 to 15 µM	–
N—(N-(4-(trifluoromethythio)phenyl)carbamimidoyl)-3,3-difluoropyrrolidine-1-carboximidamide acetate [Example 32]	–	5.40 to 5.70	–	< 6 µM

Now from value to compound, other results behind:

pIC50 ([1]; Homo sapiens)	pIC50 [1]	Compound	IC50 ([2]; Homo sapiens, SK-MEL-28, 72 h)	IC50 [2]
5.40 to 5.70	–	N=C(NC(=N)N1CCC(F)(F)C1)Nc1ccc(C(F)(F)F)cc1 [Example 30, N—(N-(4-(trifluoromethyl)phenyl)carbamimidoyl)-3,3-difluoropyrrolidine-1-carboximidamide acetate]	6 to 15 µM	–
5.40 to 5.70	–	N=C(NC(=N)N1CCC(F)(F)C1)Nc1ccc(I)c(Cl)c1 [Example 31, N—(N-(3-chloro-4-iodophenyl)carbamimidoyl)-3,3-difluoropyrrolidine-1-carboximidamide acetate]	6 to 15 µM	–
